The target in test [1] is T1, Muscarinic acetylcholine receptor M4 (Homo sapiens, UniProt P08173). Note: in other assays of this panel Not Active means under 50% inhibition at 10 µM.
T1 sequence (P08173 whole entry): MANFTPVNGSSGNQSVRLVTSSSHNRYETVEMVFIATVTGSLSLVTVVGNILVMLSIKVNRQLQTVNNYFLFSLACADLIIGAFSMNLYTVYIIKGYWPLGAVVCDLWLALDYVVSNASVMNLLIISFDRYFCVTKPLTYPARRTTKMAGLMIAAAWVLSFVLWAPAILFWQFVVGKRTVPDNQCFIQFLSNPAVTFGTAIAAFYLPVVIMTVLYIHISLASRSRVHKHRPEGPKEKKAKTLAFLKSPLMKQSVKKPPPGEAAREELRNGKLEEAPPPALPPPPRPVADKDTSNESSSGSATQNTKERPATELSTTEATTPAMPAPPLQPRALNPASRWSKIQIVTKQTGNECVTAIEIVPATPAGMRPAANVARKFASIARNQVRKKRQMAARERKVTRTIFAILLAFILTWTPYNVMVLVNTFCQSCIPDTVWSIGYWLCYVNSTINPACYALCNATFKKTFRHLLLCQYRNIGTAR
In kind it is cell membranes, CHO-K1, Membrane.

Test [2] addresses Vascular endothelial growth factor receptor 1 (Homo sapiens, UniProt P17948). In kind it is cell-based. As to conditions: huvec.
The target of a further test is T2, B2 bradykinin receptor (Homo sapiens, UniProt P30411). Note: in other assays of this panel Not Active means under 50% inhibition at 10 µM.
T2 sequence (P30411 whole entry): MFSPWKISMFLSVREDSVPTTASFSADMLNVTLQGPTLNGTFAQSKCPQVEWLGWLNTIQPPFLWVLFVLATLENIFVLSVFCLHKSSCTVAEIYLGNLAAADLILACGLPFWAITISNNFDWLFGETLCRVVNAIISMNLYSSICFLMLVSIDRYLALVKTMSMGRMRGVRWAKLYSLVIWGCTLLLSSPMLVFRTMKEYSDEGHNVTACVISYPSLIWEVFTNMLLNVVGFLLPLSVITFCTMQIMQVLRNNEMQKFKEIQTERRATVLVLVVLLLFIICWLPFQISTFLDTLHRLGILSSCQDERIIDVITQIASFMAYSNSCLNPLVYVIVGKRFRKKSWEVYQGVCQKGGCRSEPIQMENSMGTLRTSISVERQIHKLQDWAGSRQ
In kind it is cell membranes, Membrane. As to conditions: chem-1.

Test [3] has as its target T3, Alpha-1A adrenergic receptor (Rattus norvegicus, UniProt P43140).
T3 sequence (P43140 whole entry): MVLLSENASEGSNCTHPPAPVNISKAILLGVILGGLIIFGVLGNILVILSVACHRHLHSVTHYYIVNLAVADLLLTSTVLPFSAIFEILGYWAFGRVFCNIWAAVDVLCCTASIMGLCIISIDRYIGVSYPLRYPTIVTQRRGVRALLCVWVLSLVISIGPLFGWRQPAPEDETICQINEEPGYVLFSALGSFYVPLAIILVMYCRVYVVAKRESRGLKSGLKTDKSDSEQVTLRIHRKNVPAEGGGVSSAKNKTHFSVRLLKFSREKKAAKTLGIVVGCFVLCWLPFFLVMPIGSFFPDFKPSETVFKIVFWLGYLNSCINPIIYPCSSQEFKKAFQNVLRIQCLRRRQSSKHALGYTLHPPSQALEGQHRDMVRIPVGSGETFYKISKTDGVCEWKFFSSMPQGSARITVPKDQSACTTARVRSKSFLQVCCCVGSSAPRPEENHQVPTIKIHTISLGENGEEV
In words: DRUGMATRIX: Alpha-1A adrenergic receptor radioligand binding (ligand: prazosin). As to conditions: Not Active = under 50% inhibition at 10 µM. The class given is cell membranes, Wistar, Submaxillary gland, Membrane.

Test [4] has as its target Delta-type opioid receptor (Homo sapiens, UniProt P41143). The class given is cell membranes, HEK293, Membrane. As to conditions: hek293. Note: in other assays of this panel Not Active means under 50% inhibition at 10 µM.
The nature of test [5]: DRUGMATRIX: Serotonin (5-Hydroxytryptamine) 5-HT3 radioligand binding (ligand: [3H] GR-65630). The class given is cell membranes, Membrane. As to conditions: hek293; Not Active = under 50% inhibition at 10 µM.
For the next test, the target named is Nitric oxide synthase 1 (Rattus norvegicus, UniProt P29476). The class given is tissue-based, Cerebellum. Note: in other assays of this panel Not Active means under 50% inhibition at 10 µM.
Chain of Nitric oxide synthase 1 (P29476 whole entry): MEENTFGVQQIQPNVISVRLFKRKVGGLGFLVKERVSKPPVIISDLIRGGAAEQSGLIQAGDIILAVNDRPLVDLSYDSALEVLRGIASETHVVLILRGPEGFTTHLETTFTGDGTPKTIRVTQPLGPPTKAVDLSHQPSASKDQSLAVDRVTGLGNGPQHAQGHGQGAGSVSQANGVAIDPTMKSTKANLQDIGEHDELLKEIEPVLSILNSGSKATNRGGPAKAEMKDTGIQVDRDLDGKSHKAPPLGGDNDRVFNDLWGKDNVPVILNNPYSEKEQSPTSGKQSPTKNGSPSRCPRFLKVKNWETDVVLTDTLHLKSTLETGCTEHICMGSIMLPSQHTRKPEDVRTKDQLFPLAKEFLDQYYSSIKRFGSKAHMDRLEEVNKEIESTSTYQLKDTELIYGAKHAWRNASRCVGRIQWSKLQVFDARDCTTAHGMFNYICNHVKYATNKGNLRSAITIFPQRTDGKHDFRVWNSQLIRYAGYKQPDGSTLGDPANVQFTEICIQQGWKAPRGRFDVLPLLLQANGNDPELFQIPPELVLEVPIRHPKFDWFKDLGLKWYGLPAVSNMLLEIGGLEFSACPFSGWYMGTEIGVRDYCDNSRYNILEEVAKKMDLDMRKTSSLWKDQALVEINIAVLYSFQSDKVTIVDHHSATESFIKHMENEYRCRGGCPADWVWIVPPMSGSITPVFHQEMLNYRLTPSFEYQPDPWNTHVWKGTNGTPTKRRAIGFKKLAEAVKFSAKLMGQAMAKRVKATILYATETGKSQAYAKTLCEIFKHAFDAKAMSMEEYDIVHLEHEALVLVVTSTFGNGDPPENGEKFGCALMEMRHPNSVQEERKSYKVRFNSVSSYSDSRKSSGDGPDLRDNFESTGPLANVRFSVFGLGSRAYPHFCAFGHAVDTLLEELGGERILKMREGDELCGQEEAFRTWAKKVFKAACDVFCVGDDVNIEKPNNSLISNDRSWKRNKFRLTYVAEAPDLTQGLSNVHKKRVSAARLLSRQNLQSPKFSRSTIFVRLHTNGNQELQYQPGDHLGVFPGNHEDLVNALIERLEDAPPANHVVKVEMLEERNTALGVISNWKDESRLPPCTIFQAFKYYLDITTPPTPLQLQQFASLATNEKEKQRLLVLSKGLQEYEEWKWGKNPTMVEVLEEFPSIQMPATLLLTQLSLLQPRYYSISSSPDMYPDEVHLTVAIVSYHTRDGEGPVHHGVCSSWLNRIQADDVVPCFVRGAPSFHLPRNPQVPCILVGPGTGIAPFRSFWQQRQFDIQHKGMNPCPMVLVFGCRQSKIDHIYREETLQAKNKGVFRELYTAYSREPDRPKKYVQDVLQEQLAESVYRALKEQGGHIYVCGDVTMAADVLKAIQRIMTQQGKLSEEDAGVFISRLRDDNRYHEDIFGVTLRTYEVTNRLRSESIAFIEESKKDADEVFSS
For test [6], the target named is Mitogen-activated protein kinase 14 (Homo sapiens, UniProt Q16539). More on the design: species or system Escherichia coli.
For test [7], the target named is Protein kinase C alpha type (Homo sapiens, UniProt P17252). In kind it is cell-based. As to conditions: sf9.
Test [8] deals with Matrix metalloproteinase-9 (Homo sapiens, UniProt P14780). The class given is cell-based.
Chain of Matrix metalloproteinase-9 (P14780 whole entry): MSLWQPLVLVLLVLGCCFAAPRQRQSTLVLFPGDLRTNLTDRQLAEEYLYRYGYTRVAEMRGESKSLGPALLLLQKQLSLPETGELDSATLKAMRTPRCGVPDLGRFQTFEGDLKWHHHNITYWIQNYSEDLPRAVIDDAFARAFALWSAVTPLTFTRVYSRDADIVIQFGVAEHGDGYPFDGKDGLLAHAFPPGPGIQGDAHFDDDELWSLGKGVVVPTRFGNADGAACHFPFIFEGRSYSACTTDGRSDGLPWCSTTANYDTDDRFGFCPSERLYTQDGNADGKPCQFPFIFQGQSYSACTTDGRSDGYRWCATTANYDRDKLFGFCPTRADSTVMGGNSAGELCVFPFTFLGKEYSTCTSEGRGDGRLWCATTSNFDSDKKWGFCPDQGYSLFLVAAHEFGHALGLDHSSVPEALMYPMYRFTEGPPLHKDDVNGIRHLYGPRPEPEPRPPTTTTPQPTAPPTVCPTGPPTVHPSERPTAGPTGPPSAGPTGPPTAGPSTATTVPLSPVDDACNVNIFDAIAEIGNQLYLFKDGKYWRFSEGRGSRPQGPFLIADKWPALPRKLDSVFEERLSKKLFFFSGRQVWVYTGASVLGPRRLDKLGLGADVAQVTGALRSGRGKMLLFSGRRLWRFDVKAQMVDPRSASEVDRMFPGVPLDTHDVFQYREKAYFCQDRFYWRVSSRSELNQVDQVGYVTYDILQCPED
The target of test [9] is Sigma non-opioid intracellular receptor 1 (Homo sapiens, UniProt Q99720). In words: DRUGMATRIX: Sigma1 radioligand binding (ligand: [3H] Haloperidol). As to conditions: Not Active = under 50% inhibition at 10 µM. The class given is cell membranes, Jurkat, Membrane.
Chain of Sigma non-opioid intracellular receptor 1 (Q99720 whole entry): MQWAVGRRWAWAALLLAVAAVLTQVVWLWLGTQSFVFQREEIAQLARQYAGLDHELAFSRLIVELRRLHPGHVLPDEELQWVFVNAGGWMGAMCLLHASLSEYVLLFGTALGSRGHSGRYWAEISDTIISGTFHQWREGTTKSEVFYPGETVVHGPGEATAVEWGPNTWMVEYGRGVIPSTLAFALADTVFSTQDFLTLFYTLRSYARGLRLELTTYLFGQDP
For a further test, the target named is T4, Progesterone receptor (Bos taurus, UniProt Q690N0).
T4 sequence (Q690N0 whole entry): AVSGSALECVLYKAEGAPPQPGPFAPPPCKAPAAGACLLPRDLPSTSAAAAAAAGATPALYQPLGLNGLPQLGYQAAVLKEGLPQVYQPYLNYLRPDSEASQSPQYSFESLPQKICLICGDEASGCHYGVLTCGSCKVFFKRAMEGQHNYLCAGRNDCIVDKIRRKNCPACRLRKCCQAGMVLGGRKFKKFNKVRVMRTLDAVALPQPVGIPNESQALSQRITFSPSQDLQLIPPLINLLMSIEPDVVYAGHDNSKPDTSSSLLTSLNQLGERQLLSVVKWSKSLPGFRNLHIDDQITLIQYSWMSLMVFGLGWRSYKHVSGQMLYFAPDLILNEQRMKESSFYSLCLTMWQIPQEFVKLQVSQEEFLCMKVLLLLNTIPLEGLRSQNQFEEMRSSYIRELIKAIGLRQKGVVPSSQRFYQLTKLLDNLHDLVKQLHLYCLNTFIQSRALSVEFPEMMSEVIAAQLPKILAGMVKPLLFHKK
In words: DRUGMATRIX: Progesterone radioligand binding (ligand: [3H] R-5020). The class given is tissue-based, Uterus. As to conditions: Not Active = under 50% inhibition at 10 µM.

The values that follow come from ChEMBL document CHEMBL1909046, “DrugMatrix in vitro pharmacology data”.

Where a SMILES comes first, the peptide text is derived from it. Bridges are numbered along the chain shown (N, C = ends). [ ]: non-standard residue; d: D form. The star is where a group is joined. Ileψ(thiazoline)Cys = CC[C@H](C)[C@H](N)C1=N[C@H](C(=O)*)CS1; dOrn = NCCC[C@@H](N)C(=O)O

Chain of Vascular endothelial growth factor receptor 1 (P17948 whole entry): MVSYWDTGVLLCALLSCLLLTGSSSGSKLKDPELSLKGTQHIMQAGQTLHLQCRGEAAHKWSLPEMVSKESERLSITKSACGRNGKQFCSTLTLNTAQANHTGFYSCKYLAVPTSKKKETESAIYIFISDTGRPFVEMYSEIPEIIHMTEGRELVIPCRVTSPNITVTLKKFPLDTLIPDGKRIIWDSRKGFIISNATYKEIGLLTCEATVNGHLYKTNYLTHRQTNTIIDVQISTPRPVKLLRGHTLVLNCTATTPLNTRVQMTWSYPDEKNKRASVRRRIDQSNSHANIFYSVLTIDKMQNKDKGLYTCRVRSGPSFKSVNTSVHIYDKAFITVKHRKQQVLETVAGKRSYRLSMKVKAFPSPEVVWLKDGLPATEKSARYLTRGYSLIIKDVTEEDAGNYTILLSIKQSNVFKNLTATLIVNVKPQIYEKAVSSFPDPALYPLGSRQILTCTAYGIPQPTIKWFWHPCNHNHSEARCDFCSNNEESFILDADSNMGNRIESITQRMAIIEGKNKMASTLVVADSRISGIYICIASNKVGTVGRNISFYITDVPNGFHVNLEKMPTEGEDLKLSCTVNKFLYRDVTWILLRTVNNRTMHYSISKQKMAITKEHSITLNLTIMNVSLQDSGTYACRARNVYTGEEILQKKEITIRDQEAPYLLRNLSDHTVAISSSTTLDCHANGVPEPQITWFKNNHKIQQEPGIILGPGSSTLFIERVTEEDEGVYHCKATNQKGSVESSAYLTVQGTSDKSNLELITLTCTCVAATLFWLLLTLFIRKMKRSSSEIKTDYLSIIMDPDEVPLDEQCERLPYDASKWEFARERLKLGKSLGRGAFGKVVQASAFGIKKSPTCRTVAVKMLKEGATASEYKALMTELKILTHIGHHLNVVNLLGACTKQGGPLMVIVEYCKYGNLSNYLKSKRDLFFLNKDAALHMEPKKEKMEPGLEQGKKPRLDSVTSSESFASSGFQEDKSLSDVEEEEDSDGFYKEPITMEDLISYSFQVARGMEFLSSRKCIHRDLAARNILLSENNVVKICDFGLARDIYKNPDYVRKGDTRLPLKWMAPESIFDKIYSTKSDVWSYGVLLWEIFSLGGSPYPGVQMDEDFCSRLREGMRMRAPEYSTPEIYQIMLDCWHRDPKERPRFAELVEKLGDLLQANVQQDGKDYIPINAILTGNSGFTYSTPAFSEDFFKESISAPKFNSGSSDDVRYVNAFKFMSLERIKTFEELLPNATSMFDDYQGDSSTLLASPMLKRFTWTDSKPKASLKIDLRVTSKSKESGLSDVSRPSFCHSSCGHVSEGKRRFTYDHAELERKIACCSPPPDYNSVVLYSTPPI
Chain of Delta-type opioid receptor (P41143 whole entry): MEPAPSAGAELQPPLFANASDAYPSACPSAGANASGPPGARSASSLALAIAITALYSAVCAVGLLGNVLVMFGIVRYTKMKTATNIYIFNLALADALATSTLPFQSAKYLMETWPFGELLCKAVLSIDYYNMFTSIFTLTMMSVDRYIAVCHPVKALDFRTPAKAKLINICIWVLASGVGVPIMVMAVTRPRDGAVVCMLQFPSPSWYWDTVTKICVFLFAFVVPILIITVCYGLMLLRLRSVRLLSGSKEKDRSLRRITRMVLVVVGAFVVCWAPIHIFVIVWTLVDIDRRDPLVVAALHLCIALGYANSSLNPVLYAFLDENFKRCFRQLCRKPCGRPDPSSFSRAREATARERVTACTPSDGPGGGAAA

One may read the IC50 as the midpoint of a concentration-inhibition curve. One may read the Ki as the dissociation constant of the complex between target and ligand, obtained from inhibition or displacement. Regarding `Fc1ccc([C@@H]2CCNC[C@H]2COc2ccc3c(c2)OCO3)cc1` [PAROXETINE], the IC50 in test [1] (read-out: IC50) was 244 nM; in [2], “Not Active”; on B2 bradykinin receptor it was “Not Active”; in [3] it was “Not Active”; in test [4], “Not Active”; in test [5], “Not Active”. For the same compound, the IC50 entry is “Not Active” against Nitric oxide synthase 1; “Not Active” in test [6]; “Not Active” in [7]; “Not Active” in test [8]; 5370 nM in test [9] (read-out: IC50); “Not Active” at Progesterone receptor. Also, the results for the Ki in [1] (read-out: Ki), in [5] and in test [9] (read-out: Ki) were 34 nM, “Not Active” and 2260 nM, respectively.

`COC1=CC(=O)C[C@@H](C)[C@]12Oc1c(Cl)c(OC)cc(OC)c1C2=O` [GRISEOFULVIN]: the half-inhibitory concentration (IC50) entry (in test [1] (cho-k1); in test [2]; on B2 bradykinin receptor; in test [3]; in [4]; in test [5]) was “Not Active” in each case. Also, the IC50 result (against Nitric oxide synthase 1; in test [6]; in test [7]; in [8]; in test [9] (jurkat); at Progesterone receptor) was “Not Active” in each case. The Ki result in [5] is recorded as “Not Active”.

As for `CC[C@H](C)[C@H](N)C1=N[C@H](C(=O)N[C@@H](CC(C)C)C(=O)N[C@H](CCC(=O)O)C(=O)N[C@H](C(=O)N[C@H]2CCCCNC(=O)[C@H](CC(N)=O)NC(=O)[C@@H](CC(=O)O)NC(=O)[C@H](Cc3cnc[nH]3)NC(=O)[C@@H](Cc3ccccc3)NC(=O)[C@H]([C@@H](C)CC)NC(=O)[C@@H](CCCN)NC2=O)[C@@H](C)CC)CS1` [BACITRACIN] ({Ileψ(thiazoline)Cys}-L[dE]IK[dOrn]I[dF]H[dD]N; lactam 4-C), the IC50 entry (in [1] (cho-k1); in test [2]; against B2 bradykinin receptor; in test [3]; in test [4]; in test [5]) was “Not Active” throughout. The IC50 entry (against Nitric oxide synthase 1; in [6]; in test [7]; in test [8]; in test [9] (jurkat); on Progesterone receptor) was “Not Active” each time. In addition, in [5], the inhibition constant (Ki) result is listed as “Not Active”.

On to `CCCC[C@@H](CC)COC(=O)c1ccccc1C(=O)OC[C@@H](CC)CCCC` [BIS(2-ETHYLHEXYL)PHTHALATE], for which the IC50 result (in [1] (cho-k1); in test [2]; against B2 bradykinin receptor; in test [3]; in test [4]; in [5]) was “Not Active” in each case. In addition, the IC50 entry (on Nitric oxide synthase 1; in test [6]; in test [7]; in test [8]; in [9] (jurkat); at Progesterone receptor) was “Not Active” in each case. The Ki result in test [5] is reported as “Not Active”.

As for `Cc1ccccc1N1CCN(CCc2nnc3n2CCCC3)CC1` [DAPIPRAZOLE], the IC50 result (in test [1] (cho-k1); in [2]; against B2 bradykinin receptor; in test [4]; in [5]; against Nitric oxide synthase 1) was “Not Active” in each case. Also, the IC50 result (in [6]; in [7]; in test [8]; in test [9] (jurkat); on Progesterone receptor) was “Not Active” in each case. Moreover, the Ki entry in [5] is recorded as “Not Active”.

In the case of `CC(C)NC[C@H](O)COc1cccc2[nH]ccc12`, the concentration for half-maximal inhibition (IC50) entry (in [1] (cho-k1); in [2]; at B2 bradykinin receptor; in test [3]; in [4]; in test [5]) was “Not Active” throughout. The IC50 result (against Nitric oxide synthase 1; in [6]; in test [7]; in test [8]; in [9] (jurkat)) was “Not Active” in each case. The Ki result in test [5] was “Not Active”.

`CNCCC=C1c2ccccc2CCc2ccccc21` [NORTRIPTYLINE]: the IC50 result in [2] is “Not Active”; against B2 bradykinin receptor, “Not Active”; in test [3] (read-out: IC50), 305 nM; in [4], “Not Active”; in test [5], “Not Active”; against Nitric oxide synthase 1, “Not Active”. The IC50 result (in [6]; in test [7]; in [8]; in [9] (jurkat); on Progesterone receptor) was “Not Active” each time. Moreover, the values for the Ki in test [3] (read-out: Ki) and in test [5] were 123 nM and “Not Active”, respectively.

Take `O=c1cc(-c2ccccc2)oc2c1ccc1ccccc12` [ALPHA-NAPHTHOFLAVONE]: the IC50 result (in test [1] (cho-k1); in [2]; against B2 bradykinin receptor; in test [3]; in test [4]; in test [5]) was “Not Active” each time. Also, the IC50 result (at Nitric oxide synthase 1; in test [6]; in test [7]; in test [8]; on Progesterone receptor) was “Not Active” each time. Besides, in test [5], the Ki result is recorded as “Not Active”.
